Experimental data reported in patent publication US20260034119A1, “5-METHOXY-N,N-[…][…], THEIR […], AND METHODS FOR TREATMENT OF NEUROLOGICAL, […], AND SUBSTANCE USE DISORDERS” (priority 2023, published 2026).

Tested on: C57BL6J mice
Experiment: Catalepsy bar test (tetrabenazine / haloperidol induced)
Type: in vivo, mouse
Details: 10.0 & 20.0 mg/kg s.c., 60 min post inj., vs vehicle
From the text: Catalepsy, characterized by muscular rigidity and fixity of posture irrespective of external stimuli (Mann et al. 2015, Karuppagounder et al 2012) is a recognized model for Parkinson's disease (PD) in rodents, induced by dopamine (DA) antagonists such as haloperidol, and DA depleting agents like tetrabenazine (TBZ) (Jastrzębska-Więsek et al. 2022, Bhangale et al. 2016). TBZ, a reversible inhibitor of the type-2 vesicular monoamine transporter, primarily affects dopamine neurons by blocking vesicular storage and depleting monoamines (Jastrzębska-Więsek et al. 2022). In contrast, Haloperidol, a nonselective D2 dopamine antagonist, […] (Bhangale et al. 2016). C57BL6J mice are administered TBZ/Haloperidol at t=0 min and 4-F, 5-MeO-PyrT at t=30 min via subcutaneous injection, with Haloperidol (0.5 mg/kg) given intraperitoneal injection. Mice are tested individually at t=60 min, and catalepsy is defined by the absence of movement for 30-60 seconds with a cutoff time set to 60 second. […] The automated Maze Engineers Catalepsy Bar test, featuring sensors to detect forelimb removal from the bar, facilitates automatic recording of forelimb movement duration from the bar to the ground.

With `COc1cc2c(cc1OC)C1CC(=O)C(CC(C)C)CN1CC2` (stereo not shown) [Tetrabenazine] the induction of catalepsy was “significantly induces catalepsy”.
